Assay [1] deals with pyruvate kinase (pyk2, MALCv4_3080). Kind of assay: Effect of effectors on activity of purified recombinant pyruvate kinase. The format is biochemical, Methylomicrobium alcaliphilum 20Z. The following applies: for Relative activity: control without effector = 100; for stimulation of enzyme activity: in the presence of the RuMP pathway intermediate. As to the method:
Methanotrophic pyruvate kinase-purification and characterization.
(§1) Protein purification and characterization. Activities of key enzymes of the central metabolic pathways were measured as described. Pyruvate forming activity in cell-free extracts of M. alcaliphilus 20Z was also measured using Pyruvate Assay Kit (BioVision Inc. CA, USA). Recombinant pyruvate kinase PK-ubiqitin-His6 (“His6” disclosed as SEQ ID NO: 7) was obtained by cloning of the pyk2 gene (MALCv4_3080) in the vector pHUE and expressing in E. coli BL21 (DE3) cells growing in the presence of 0.5 mM IPTG for 5 hours at 37° C. PK-ubiqitin-His6 enzyme (“His6” disclosed as SEQ ID NO: 7) was purified by affinity chromatography on a Ni^2+-NTA column as described earlier.

The test system of the next assay is 20ZER. Kind of assay: Accumulation of extracellular metabolites by the culture with an inhibitor of the cyt bc complex. The format is cell-based, Methylomicrobium alcaliphilum. The following applies: 20ZER + antimycin, dO2 ^ 40%. The procedure: Cultivation and growth parameters. M. alcaliphilum 20Z cells were grown using a mineral salts medium in either closed vials (50 ml culture in 250 ml vials, with shaking at 200 rpm) or bioreactor cultures (fed-batch or chemostat; 1 L working volume in a two liter bench top BioFlo™ 110 modular bioreactors, New Brunswick Scientific, Edison, N.J.). Cells were grown at 28-30° C. Optical density of cell cultures was measured on a Beckman DU® 640B spectrophotometer in plastic 1.5 mL cuvettes with a 1 cm path length. Chemostat cultures maintained a steady-state optical density at 600 nm (OD600) of approximately 2.0±0.2. […] Samples of inflow and outflow gases were either collected daily in triplicates for gas analysis or were analyzed immediately every 15 minutes using a SRI 8610C™ Gas Chromatograph connected to a bioreactor unit. The rates of methane consumption and H2 production were determined by incubating cell samples (50 ml, OD600 between 2 and 4) in closed 250 ml vials for 12-60 h at 28° C. […]

In assay [2] the target is pyruvate kinase 2 from M. alcaliphilum 20Z (Methylotuvimicrobium alcaliphilum, UniProt G4T2L7). The format is biochemical, Methylomicrobium alcaliphilum 20Z. Particulars: in the presence of 2.5 mM ribose-5-phosphate; read-out: S0.5 (used in place of Km, non Michaelis-Menten). As to the method:
as §1

Data on 19 compounds can be found in patent US20160237398A1, “METHODS OF MICROBIAL PRODUCTION OF EXCRETED PRODUCTS FROM METHANE AND RELATED BACTERIAL STRAINS” (UNIVERSITY OF WASHINGTON THROUGH ITS CENTER FOR …, priority 2013, published 2016).

Chain of pyruvate kinase 2 from M. alcaliphilum 20Z (G4T2L7 entry or part of it): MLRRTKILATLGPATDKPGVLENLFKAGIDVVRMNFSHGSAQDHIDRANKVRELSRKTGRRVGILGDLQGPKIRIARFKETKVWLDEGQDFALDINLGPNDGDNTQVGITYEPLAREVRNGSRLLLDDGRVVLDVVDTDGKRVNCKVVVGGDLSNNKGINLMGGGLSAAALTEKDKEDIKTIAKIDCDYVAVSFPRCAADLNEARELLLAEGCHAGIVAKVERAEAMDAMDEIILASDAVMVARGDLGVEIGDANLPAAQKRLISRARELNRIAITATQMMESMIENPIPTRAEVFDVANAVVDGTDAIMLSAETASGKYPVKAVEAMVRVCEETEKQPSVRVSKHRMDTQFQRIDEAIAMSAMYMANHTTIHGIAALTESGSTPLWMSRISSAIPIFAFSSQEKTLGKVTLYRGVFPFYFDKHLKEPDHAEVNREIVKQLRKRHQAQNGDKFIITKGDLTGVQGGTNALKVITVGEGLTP

Consider `O=C[C@H](O)[C@@H](O)[C@H](O)[C@H](O)COP(=O)(O)O` [Glucose-6-phosphate], for which, in assay [1] (effector 5 mM), the Relative activity amounted to 2545%. Further, the “stimulation of enzyme activity” value in assay [1] worked out at 20 fold.

Take antimycin A: in the assay with 20ZER, the “Accumulation of extracellular Acetate” value is 3955 ± 230 μmol L^−1 g^−1 CDW and the “Accumulation of extracellular Lactate” value turned out to be 437 ± 30 μmol L^−1 g^−1 CDW.

Consider `O=P(O)(O)O[C@H]1O[C@H](CO)[C@@H](O)[C@H](O)[C@H]1O` [Glucose-1-phosphate], for which, in assay [1] (effector 5 mM), the Relative activity amounted to 67%.

Take `N[C@@H](CO)C(=O)O` [Serine]: in assay [1] (effector 1 mM), the Relative activity was found to be 133%.

In the case of `O=C(O)CC(O)C(=O)O` (centres unmarked) [Malate], the Relative activity in assay [1] (effector 1 mM) came out at 82%.

With `Nc1ncnc2c1ncn2[C@@H]1O[C@H](COP(=O)(O)OP(=O)(O)OP(=O)(O)O)[C@@H](O)[C@H]1O` [ATP], in assay [1], the “effect on enzyme activity” value is reported as “strongly inhibited”. The Relative activity in assay [1] (effector 0.5 mM) is listed as 64%; in assay [1] (effector 1 mM), 32%; in assay [1] (effector 2 mM), 12%.

By Km is commonly meant the concentration of substrate that gives half-maximal velocity. With `[Cl-].[Cl-].[Mg+2]` [MgCl2], the Km in assay [2] came out at 1990 µM.

For `O=P(O)(O)O` [Pi, inorganic phosphate], in assay [1], the “effect on enzyme activity” value is given as “strongly inhibited”. The Relative activity in assay [1] (effector 6 mM) turned out to be 11%.

As for `O=P(O)(O)O[C@H]1O[C@H](CO)[C@@H](O)[C@H]1O` [Ribose-1-phosphate], the Relative activity in assay [1] (effector 5 mM) is 92%.

Take `Nc1ncnc2c1ncn2[C@@H]1O[C@H](COP(=O)(O)O)[C@@H](O)[C@H]1O` [AMP]: in assay [1] (effector 2 mM), the Relative activity amounted to 126%.

Consider `O=C(COP(=O)(O)O)[C@@H](O)[C@H](O)[C@H](O)CO` [Fructose-1-phosphate], for which, in assay [1] (effector 5 mM), the Relative activity is 270%.

Regarding `O=C(COP(=O)(O)O)[C@@H](O)[C@H](O)[C@H](O)COP(=O)(O)O` [Fructose-1,6-bisphosphate], the Relative activity in assay [1] (effector 5 mM) came out at 158%.

With `O=C(O)[C@@H](CO)OP(=O)(O)O` [2-phosphoglycerate], in assay [1] (effector 2 mM), the Relative activity stood at 75%.

With `O=C(CO)[C@@H](O)[C@H](O)[C@H](O)COP(=O)(O)O` [Fructose-6-phosphate], in assay [1], the “inhibitory effect of ATP, PPi and Pi after addition of the activator” value is “completely abolished”; the “stimulation of enzyme activity” value worked out at 20 fold. For the same compound, in assay [1] (effector 5 mM), the Relative activity is given as 2518%.

Regarding `O=C[C@H](O)[C@H](O)COP(=O)(O)O` [Erythrose-4-phosphate], the Relative activity in assay [1] (effector 5 mM) was 740%. Also, the “stimulation of enzyme activity” value in assay [1] is given as 20 fold.

Take `O=P(O)(O)OP(=O)(O)O` [PPi, pyrophosphate]: in assay [1], the “effect on enzyme activity” value is on record as “strongly inhibited”. Also, the Relative activity in assay [1] (effector 2 mM) turned out to be 14%.

`O=C(O)CC(O)(CC(=O)O)C(=O)O` [Citrate]: the Relative activity in assay [1] (effector 1 mM) amounted to 140%.

As for `O=C[C@H](O)[C@H](O)[C@H](O)COP(=O)(O)O` [Ribose-5-phosphate], in assay [1], the “inhibitory effect of ATP, PPi and Pi after addition of the activator” value is “completely abolished”; the “stimulation of enzyme activity” value is 20 fold. The Relative activity in assay [1] (effector 5 mM) is listed as 2092%.

With `O=C(CO)[C@H](O)[C@H](O)COP(=O)(O)O` [Ribulose-5-phosphate], in assay [1] (effector 5 mM), the Relative activity was 1890%. Further, in assay [1], the “stimulation of enzyme activity” value was 20 fold.
